In the supplement of paper PMC11451515:

System: SEM cells
Assay: cell viability relative to DMSO control; higher = less cytotoxic
Conditions: 48 h
Summary of the method: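 Viability is a per-plate percentage relative to DMSO wells, with cell-free wells as background. CellTiter-Glo One luminescence was read after 48 h at 37°C on 1536-well plates (5 μl) of NOMO1 or SEM (500 cells/well) or P12-Ichikawa (1000 cells/well) leukemia cells. The cells had been adapted for at least four passages in each medium and pin-dosed with library compounds in DMSO from 47 μM to 0.79 nM in 11 threefold steps.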

[1] = HPLM + 10% dialyzed FBS, 0.000781 µM
[2] = HPLM + 10% dialyzed FBS, 0.00234 µM
[3] = HPLM + 10% dialyzed FBS, 0.00702 µM
[4] = HPLM + 10% dialyzed FBS, 0.0211 µM
[5] = HPLM + 10% dialyzed FBS, 0.0632 µM
[6] = HPLM + 10% dialyzed FBS, 0.19 µM
[7] = HPLM + 10% dialyzed FBS, 0.569 µM
[8] = HPLM + 10% dialyzed FBS, 1.71 µM
[9] = HPLM + 10% dialyzed FBS, 5.12 µM
[10] = HPLM + 10% dialyzed FBS, 15.4 µM
[11] = HPLM + 10% dialyzed FBS, 46.1 µM
[12] = RPMI 5 mM glucose + 10% FBS, 0.000781 µM
[13] = RPMI 5 mM glucose + 10% FBS, 0.00234 µM
[14] = RPMI 5 mM glucose + 10% FBS, 0.00702 µM
[15] = RPMI 5 mM glucose + 10% FBS, 0.0211 µM
[16] = RPMI 5 mM glucose + 10% FBS, 0.0632 µM
[17] = RPMI 5 mM glucose + 10% FBS, 0.19 µM
[18] = RPMI 5 mM glucose + 10% FBS, 0.569 µM
[19] = RPMI 5 mM glucose + 10% FBS, 1.71 µM
[20] = RPMI 5 mM glucose + 10% FBS, 5.12 µM
[21] = RPMI 5 mM glucose + 10% FBS, 15.4 µM
[22] = RPMI 5 mM glucose + 10% FBS, 46.1 µM
[23] = RPMI 5 mM glucose + 10% dialyzed FBS, 0.000781 µM
[24] = RPMI 5 mM glucose + 10% dialyzed FBS, 0.00234 µM
[25] = RPMI 5 mM glucose + 10% dialyzed FBS, 0.00702 µM
[26] = RPMI 5 mM glucose + 10% dialyzed FBS, 0.0211 µM
[27] = RPMI 5 mM glucose + 10% dialyzed FBS, 0.0632 µM
[28] = RPMI 5 mM glucose + 10% dialyzed FBS, 0.19 µM
[29] = RPMI 5 mM glucose + 10% dialyzed FBS, 0.569 µM
[30] = RPMI 5 mM glucose + 10% dialyzed FBS, 1.71 µM
[31] = RPMI 5 mM glucose + 10% dialyzed FBS, 5.12 µM
[32] = RPMI 5 mM glucose + 10% dialyzed FBS, 15.4 µM
[33] = RPMI 5 mM glucose + 10% dialyzed FBS, 46.1 µM

Compound | cell viability [1] | cell viability [2] | cell viability [3] | cell viability [4] | cell viability [5] | cell viability [6] | cell viability [7] | cell viability [8] | cell viability [9] | cell viability [10] | cell viability [11] | cell viability [12] | cell viability [13] | cell viability [14] | cell viability [15] | cell viability [16] | cell viability [17] | cell viability [18] | cell viability [19] | cell viability [20] | cell viability [21] | cell viability [22] | cell viability [23] | cell viability [24] | cell viability [25] | cell viability [26] | cell viability [27] | cell viability [28] | cell viability [29] | cell viability [30] | cell viability [31] | cell viability [32] | cell viability [33]
C[C@@]12OC(=O)[C@@]1(NC(=O)[C@@H]2CCCl)[C@@H](O)[C@H]\3CCC\C=C3 | 78.2% | 92.7% | 93.6% | 100% | 34.2% | 10% | 6.88% | 6.65% | 4.57% | 3.3% | 2.16% | 87.5% | 90.2% | 93.7% | 96.8% | 31.8% | 8.22% | 7.13% | 6.4% | 4.56% | 2.53% | 2.01% | 80.9% | 92% | 91.8% | 84% | 33.3% | 9.46% | 7.84% | 7.08% | 5.11% | 3.72% | 2.53%
COC1=CC=C(C=C1)C/2=C/OC3=CC(=CC=C3C2=O)O | 116% | 113% | 113% | 114% | 123% | 109% | 114% | 122% | 130% | 115% | 136% | 117% | 124% | 136% | 109% | 133% | 117% | 98.9% | 106% | 143% | 122% | 145% | 124% | 139% | 112% | 110% | 115% | 120% | 122% | 121% | 133% | 131% | 142%
OC1=C(C=CC=C1)C2=CC=C(C=C2)C3=CSC4=C3C(=C(/C#N)C(=O)N4)/O | 114% | 123% | 131% | 129% | 120% | 132% | 124% | 113% | 96.6% | 113% | 103% | 111% | 109% | 118% | 112% | 105% | 90.5% | 98.6% | 112% | 87.4% | 96.7% | 90.9% | 113% | 117% | 124% | 133% | 121% | 126% | 115% | 117% | 104% | 110% | 100%
CCc1cc(/C(C)=N/OCc2ccc(C3CCCCC3)c(C(F)(F)F)c2)ccc1CN1CC(C(=O)O)C1 | 104% | 117% | 112% | 109% | 104% | 115% | 120% | 117% | 99.8% | 87.1% | 82.9% | 92% | 108% | 109% | 109% | 105% | 109% | 106% | 99.9% | 96.2% | 82.2% | 70.2% | 114% | 116% | 125% | 123% | 126% | 124% | 137% | 132% | 118% | 106% | 94%
CCOP(=O)(OCC)C(C)NC(=O)N(CCCl)N=O (stereo unspecified) | 101% | 109% | 125% | 114% | 126% | 128% | 129% | 122% | 119% | 127% | 94.9% | 90.7% | 98.1% | 98.7% | 104% | 101% | 111% | 78.4% | 95.5% | 87.1% | 84.6% | 74.4% | 108% | 97% | 116% | 122% | 112% | 127% | 127% | 137% | 107% | 103% | 81.2%
CC1=CC2=C(O1)C(=C3OC(=O)\C=C(C)/C3=C2)C | 70.2% | 81.2% | 86.8% | 88.7% | 84% | 84.5% | 83.8% | 92.5% | 90.6% | 88.9% | 74.1% | 72% | 91.5% | 93.7% | 96.8% | 86.7% | 103% | 98.3% | 103% | 105% | 92.2% | 91% | 89% | 100% | 94.8% | 102% | 93.4% | 107% | 109% | 104% | 121% | 111% | 105%
CC1=C(C)C2=C(S1)[N]3C(=NN=C3[C@H](CC(=O)OC(C)(C)C)/N=C2/C4=CC=C(Cl)C=C4)C | 98.5% | 115% | 107% | 105% | 104% | 43.2% | 11.3% | 17.7% | 6.74% | 4.33% | 1.71% | 100% | 108% | 106% | 102% | 103% | 67.7% | 13.7% | 18.7% | 7.27% | 4.94% | 1.39% | 108% | 103% | 102% | 78.7% | 94.7% | 53.9% | 17.5% | 15.8% | 5.05% | 3.64% | 1.14%
C[C@H]1[C@@H](CC(C[C@H]2O[C@@H]3O[C@]4(C)CC[C@H]5[C@H](C)CC[C@@H]([C@H]2C)[C@@]35OO4)C[S+](=O)([O-])c2ccc(COC(=O)N(C)C)cc2)O[C@@H]2O[C@]3(C)CC[C@H]4[C@H](C)CC[C@@H]1[C@@]24OO3 | 96.1% | 91.3% | 97.2% | 99.8% | 102% | 89.3% | 72.9% | 5.9% | 7.11% | 6.96% | 4.59% | 101% | 103% | 91.3% | 115% | 106% | 108% | 23.9% | 6.39% | 7.58% | 7.01% | 5.47% | 109% | 112% | 94.1% | 105% | 107% | 104% | 27.5% | 6.28% | 6.52% | 6.47% | 4.61%
N#Cc1c(C2CCNCC2)cc(-c2c(O)cccc2OCC2CC2)nc1N | 108% | 106% | 107% | 109% | 114% | 115% | 108% | 108% | 100% | 77.4% | 34.2% | 103% | 107% | 106% | 115% | 121% | 110% | 97.3% | 118% | 102% | 82.8% | 29% | 98.7% | 108% | 104% | 104% | 106% | 108% | 101% | 98.1% | 85.3% | 72.6% | 43.7%
NC/1=N/C(=O)N(/C=C1)[C@H]2CC[C@@H](CO)O2 | 78.3% | 95% | 93.8% | 103% | 101% | 104% | 109% | 121% | 103% | 23% | 72.2% | 71.7% | 88.8% | 103% | 92% | 88.3% | 101% | 93.4% | 96.1% | 110% | 17% | 80.1% | 68.7% | 87.4% | 94.3% | 94.3% | 102% | 88.1% | 88.6% | 98.4% | 78% | 17.2% | 53.4%
CN(C(=O)c1ccc(F)cc1C(F)(F)F)C1CCN(c2nnc(-c3ccnn3C)c3ccccc23)CC1 | 50.4% | 67.5% | 60.6% | 62.4% | 79.4% | 85.1% | 69.4% | 78.6% | 79% | 80.6% | 49.2% | 69.2% | 74.8% | 71% | 85.5% | 83.3% | 77.6% | 91% | 86.2% | 74.1% | 86.8% | 59.8% | 56.3% | 61.4% | 61.9% | 70.8% | 66.7% | 80.4% | 65% | 86.1% | 79.2% | 83.3% | 41%
Nc1ccc([S+](=O)([O-])Nc2ccccn2)cc1 | 77.7% | 91.7% | 91.3% | 93.7% | 82.7% | 91% | 93.6% | 98.8% | 88.5% | 97% | 96.9% | 100% | 104% | 115% | 118% | 112% | 108% | 122% | 119% | 124% | 109% | 111% | 98.6% | 109% | 100% | 101% | 113% | 101% | 99% | 108% | 121% | 103% | 115%
CCCCCCCCCCCCCCCC(=O)OC[C@@H](NC(=O)C(Cl)Cl)[C@H](O)c1ccc([N+](=O)[O-])cc1 | 90.3% | 113% | 114% | 116% | 121% | 121% | 118% | 123% | 131% | 116% | 119% | 120% | 117% | 132% | 122% | 136% | 138% | 132% | 124% | 128% | 133% | 129% | – | – | – | – | – | – | – | – | – | – | –
CC1=C(/C=C/C(C)=C/C=C/C(C)=C/C(=O)Nc2ccc(O)cc2)C(C)(C)CCC1 | 84.5% | 77.4% | 81.4% | 104% | 86.9% | 83.9% | 85.1% | 42.5% | 23.1% | 5.89% | 3.35% | 85% | 85.5% | 92.2% | 96.9% | 81.4% | 88.6% | 83% | 65% | 30.7% | 9.06% | 3.24% | 76.8% | 71.5% | 80.1% | 85.3% | 76.6% | 80.8% | 82.2% | 37.5% | 20% | 4.93% | 2.92%
